Test results: patent US10344060B2 (priority 2013, dated 2019)
pIC50: −log10 of the molar value. Where two headings read alike, the source gives them in different places.

What was measured:
Experiment in all cases: cell-based
hNav1.7 = hNav1.7 (Homo sapiens, UniProt Q15858); assay type: cell-based; settings: for pIC50: read-out: PX hNav1.7 Tonic IC50
hNav1.5 = hNav1.5 (Homo sapiens, UniProt Q14524); settings: for pIC50: read-out: PX hNav1.5 Tonic IC50; for Nav1.5/Nav1.7: ratio of PX tonic IC50 values
hNav1.4 [1] = target: T1, hNav1.4 (Homo sapiens, UniProt P35499); assay type: cell-based; settings: for pIC50: read-out: PX hNav1.4 Tonic IC50; for Nav1.4/Nav1.7: ratio of PX tonic IC50 values
T1 sequence (P35499 whole entry): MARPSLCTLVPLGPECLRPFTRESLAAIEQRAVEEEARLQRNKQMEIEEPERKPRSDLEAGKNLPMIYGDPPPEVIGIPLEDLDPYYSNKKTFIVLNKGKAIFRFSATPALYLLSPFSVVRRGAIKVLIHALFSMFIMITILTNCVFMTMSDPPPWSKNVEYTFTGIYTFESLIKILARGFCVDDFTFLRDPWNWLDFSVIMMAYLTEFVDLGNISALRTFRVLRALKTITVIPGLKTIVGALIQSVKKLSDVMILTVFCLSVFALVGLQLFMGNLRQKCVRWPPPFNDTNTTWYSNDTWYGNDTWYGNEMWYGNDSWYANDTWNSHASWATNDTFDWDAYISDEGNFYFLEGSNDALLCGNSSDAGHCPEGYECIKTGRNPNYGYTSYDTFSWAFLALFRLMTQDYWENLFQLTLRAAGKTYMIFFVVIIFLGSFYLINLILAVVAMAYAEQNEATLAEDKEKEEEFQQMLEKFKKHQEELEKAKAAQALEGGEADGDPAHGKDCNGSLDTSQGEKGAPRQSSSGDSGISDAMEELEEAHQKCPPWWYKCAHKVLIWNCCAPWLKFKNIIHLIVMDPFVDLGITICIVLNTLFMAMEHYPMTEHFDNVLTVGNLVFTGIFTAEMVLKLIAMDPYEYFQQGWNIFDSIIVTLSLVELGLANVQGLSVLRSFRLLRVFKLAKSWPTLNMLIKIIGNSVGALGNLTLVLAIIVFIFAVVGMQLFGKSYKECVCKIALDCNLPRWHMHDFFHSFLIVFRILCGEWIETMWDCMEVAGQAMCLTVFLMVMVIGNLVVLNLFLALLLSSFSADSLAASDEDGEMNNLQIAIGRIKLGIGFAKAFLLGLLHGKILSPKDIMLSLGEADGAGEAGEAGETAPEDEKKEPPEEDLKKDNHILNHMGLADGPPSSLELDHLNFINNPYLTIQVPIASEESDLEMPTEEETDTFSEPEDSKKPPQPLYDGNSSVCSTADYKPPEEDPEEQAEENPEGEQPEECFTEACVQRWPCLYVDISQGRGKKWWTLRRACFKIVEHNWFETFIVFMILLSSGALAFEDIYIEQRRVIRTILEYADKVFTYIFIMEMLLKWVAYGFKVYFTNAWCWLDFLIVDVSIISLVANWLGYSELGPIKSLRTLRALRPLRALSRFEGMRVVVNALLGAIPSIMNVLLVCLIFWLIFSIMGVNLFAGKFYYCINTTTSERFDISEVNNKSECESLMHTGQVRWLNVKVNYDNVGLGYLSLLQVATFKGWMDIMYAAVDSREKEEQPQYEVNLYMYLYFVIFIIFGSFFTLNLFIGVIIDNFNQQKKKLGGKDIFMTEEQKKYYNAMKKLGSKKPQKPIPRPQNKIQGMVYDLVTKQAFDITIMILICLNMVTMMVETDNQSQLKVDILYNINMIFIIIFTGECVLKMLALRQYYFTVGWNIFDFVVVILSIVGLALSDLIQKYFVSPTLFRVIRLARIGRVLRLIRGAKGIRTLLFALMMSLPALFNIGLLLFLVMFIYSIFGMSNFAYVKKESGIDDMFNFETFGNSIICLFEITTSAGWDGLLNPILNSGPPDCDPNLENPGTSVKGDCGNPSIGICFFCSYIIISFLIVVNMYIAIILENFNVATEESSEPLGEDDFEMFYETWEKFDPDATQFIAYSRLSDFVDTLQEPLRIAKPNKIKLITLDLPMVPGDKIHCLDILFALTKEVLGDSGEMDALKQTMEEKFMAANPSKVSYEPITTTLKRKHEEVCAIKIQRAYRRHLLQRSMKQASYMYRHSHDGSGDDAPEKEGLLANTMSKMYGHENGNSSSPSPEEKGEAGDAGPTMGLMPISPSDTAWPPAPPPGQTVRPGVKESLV

hNav1.6 = hNav1.6 (Homo sapiens, UniProt Q9UQD0); assay type: cell-based; settings: Table 15; for Nav1.6/Nav1.7: ratio of PX tonic IC50 values; for pIC50: read-out: PX hNav1.6 Tonic IC50
hNav1.4 [2] = target: T1, hNav1.4; assay type: cell-based; settings: ratio of IonWorks Quattro IC50 values; Table 9
[3] = ratio of PX tonic IC50 values, Table 11
[4] = Table 12, PatchXpress, tonic block

hNav1.7, sequence (Q15858 whole entry): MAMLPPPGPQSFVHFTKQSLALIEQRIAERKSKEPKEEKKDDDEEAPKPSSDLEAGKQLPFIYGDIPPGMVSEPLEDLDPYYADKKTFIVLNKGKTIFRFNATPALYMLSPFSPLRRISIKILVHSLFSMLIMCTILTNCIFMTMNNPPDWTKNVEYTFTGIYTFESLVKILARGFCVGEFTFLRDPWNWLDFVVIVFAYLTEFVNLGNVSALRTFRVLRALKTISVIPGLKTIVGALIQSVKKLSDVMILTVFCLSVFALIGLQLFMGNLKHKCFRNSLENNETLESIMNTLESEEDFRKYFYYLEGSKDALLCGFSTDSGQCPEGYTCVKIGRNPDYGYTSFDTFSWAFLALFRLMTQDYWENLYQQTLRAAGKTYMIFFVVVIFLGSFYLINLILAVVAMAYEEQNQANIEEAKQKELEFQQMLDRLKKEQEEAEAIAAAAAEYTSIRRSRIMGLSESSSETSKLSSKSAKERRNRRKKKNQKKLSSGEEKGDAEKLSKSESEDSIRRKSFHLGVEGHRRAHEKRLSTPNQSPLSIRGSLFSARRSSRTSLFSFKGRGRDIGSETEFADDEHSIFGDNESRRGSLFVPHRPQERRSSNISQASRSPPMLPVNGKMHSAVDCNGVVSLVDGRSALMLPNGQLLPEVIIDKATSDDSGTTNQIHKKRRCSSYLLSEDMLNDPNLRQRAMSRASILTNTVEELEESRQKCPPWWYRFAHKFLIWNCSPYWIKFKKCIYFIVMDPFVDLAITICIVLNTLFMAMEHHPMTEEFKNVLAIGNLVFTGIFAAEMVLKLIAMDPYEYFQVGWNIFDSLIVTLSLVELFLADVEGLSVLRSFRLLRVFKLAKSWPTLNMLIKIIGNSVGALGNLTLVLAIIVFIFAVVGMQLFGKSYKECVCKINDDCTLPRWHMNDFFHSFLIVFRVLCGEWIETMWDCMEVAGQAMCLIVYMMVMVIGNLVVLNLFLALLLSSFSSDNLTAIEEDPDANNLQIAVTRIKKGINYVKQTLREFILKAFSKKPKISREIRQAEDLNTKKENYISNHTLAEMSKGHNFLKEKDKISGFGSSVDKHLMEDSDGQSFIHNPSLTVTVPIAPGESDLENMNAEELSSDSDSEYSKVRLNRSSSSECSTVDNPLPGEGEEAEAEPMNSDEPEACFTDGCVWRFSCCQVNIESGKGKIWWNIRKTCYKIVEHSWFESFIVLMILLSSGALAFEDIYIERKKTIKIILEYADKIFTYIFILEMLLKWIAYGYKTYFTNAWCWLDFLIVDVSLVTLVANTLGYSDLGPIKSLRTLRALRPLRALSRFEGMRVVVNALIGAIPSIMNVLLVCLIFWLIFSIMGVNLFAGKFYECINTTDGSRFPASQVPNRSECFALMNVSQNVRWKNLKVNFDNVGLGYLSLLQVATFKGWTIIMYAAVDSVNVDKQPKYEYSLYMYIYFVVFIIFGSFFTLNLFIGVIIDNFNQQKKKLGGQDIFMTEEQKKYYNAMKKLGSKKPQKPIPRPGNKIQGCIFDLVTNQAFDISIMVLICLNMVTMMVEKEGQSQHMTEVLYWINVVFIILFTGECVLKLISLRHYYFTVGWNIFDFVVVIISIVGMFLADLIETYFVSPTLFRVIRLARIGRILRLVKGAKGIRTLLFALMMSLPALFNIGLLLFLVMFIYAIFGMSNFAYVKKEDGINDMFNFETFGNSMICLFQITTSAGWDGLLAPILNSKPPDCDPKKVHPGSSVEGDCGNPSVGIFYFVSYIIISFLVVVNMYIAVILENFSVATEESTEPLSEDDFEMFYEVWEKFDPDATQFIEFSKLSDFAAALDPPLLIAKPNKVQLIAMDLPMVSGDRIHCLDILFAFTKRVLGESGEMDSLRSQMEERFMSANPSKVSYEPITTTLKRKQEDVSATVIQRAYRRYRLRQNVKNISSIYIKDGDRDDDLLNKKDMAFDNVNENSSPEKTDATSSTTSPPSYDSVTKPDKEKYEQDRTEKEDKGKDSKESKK

CCCC[C@@H]1NC(=O)[C@H](Cc2c[nH]c3ccccc23)NC(=O)[C@H](CCCCN)NC(=O)[C@H](CCC(N)=O)NC(=O)[C@@H](NC(=O)[C@H](Cc2ccc(O)cc2)NC(=O)[C@@H](N)CCC(=O)O)CSSC[C@@H]2NC(=O)[C@@H]3CSSC[C@@H](C(=O)N[C@@H](CCCNC(=N)N)C(=O)N[C@@H](CCCCN)C(=O)N[C@@H](CCC(=O)O)C(=O)N[C@H](C(N)=O)[C@@H](C)CC)NC(=O)[C@H](Cc4c[nH]c5ccccc45)NC(=O)[C@H](CC(C)C)NC(=O)[C@H](CCCCN)NC(=O)[C@H](CSSC[C@H](NC(=O)[C@H]([C@@H](C)O)NC(=O)[C@H](Cc4c[nH]c5ccccc45)NC1=O)C(=O)N[C@@H](CC(=O)O)C(=O)N[C@@H](CO)C(=O)N[C@@H](CCCCN)C(=O)N[C@@H](CCCNC(=N)N)C(=O)N[C@@H](C)C(=O)N3)NC(=O)[C@H](CCCNC(=N)N)NC(=O)[C@H](CC(C)C)NC(=O)CNC(=O)[C@H](CCC(=O)O)NC2=O [compound 708]
pIC50 (hNav1.7; PatchXpress, tonic, Table 11): 9.12
Nav1.4/Nav1.7 (hNav1.7; [3]): 130
Nav1.5/Nav1.7 (hNav1.7; [3]): 9941
pIC50 (hNav1.5; PatchXpress, tonic, Table 11): 5.12
pIC50 (hNav1.4 [1]; PatchXpress, tonic, Table 11): 7.00
Nav1.6/Nav1.7 (hNav1.6): 682
pIC50 (hNav1.6): 6.28

CCCC[C@@H]1NC(=O)[C@H](Cc2c[nH]c3ccccc23)NC(=O)[C@H](CCCCN)NC(=O)[C@H](CCC(N)=O)NC(=O)[C@@H](NC(=O)[C@H](Cc2ccc(O)cc2)NC(=O)[C@@H](N)Cc2cn(CCCCCCNC(=O)CCOCCOCCOCCOCCNC(=O)CCCC[C@@H]3SC[C@@H]4NC(=O)N[C@@H]43)nn2)CSSC[C@@H]2NC(=O)[C@@H]3CSSC[C@@H](C(=O)N[C@@H](CCCNC(=N)N)C(=O)N[C@@H](CCCCN)C(=O)N[C@H](C(=O)N[C@H](C(N)=O)[C@@H](C)CC)[C@@H](C)CC)NC(=O)[C@H](Cc4c[nH]c5ccccc45)NC(=O)[C@H](CC(C)C)NC(=O)[C@H](CCCCN)NC(=O)[C@H](CSSC[C@H](NC(=O)[C@H]([C@@H](C)O)NC(=O)[C@H](Cc4c[nH]c5ccccc45)NC1=O)C(=O)N[C@@H](CC(=O)O)C(=O)N[C@@H](CO)C(=O)N[C@@H](CCCCN)C(=O)N[C@@H](CCCNC(=N)N)C(=O)N[C@@H](C)C(=O)N3)NC(=O)[C@H](CCCNC(=N)N)NC(=O)[C@H](CC(C)C)NC(=O)CNC(=O)[C@H](CCC(=O)O)NC2=O [compound 898]
pIC50 (hNav1.7): 8.61
Nav1.5/Nav1.7 (hNav1.5; Table 13): 2067
pIC50 (hNav1.5): 5.29
Nav1.4/Nav1.7 (hNav1.4 [1]; Table 13): 6
pIC50 (hNav1.4 [1]): 7.81

C#CC[C@H](N)C(=O)N[C@@H](CCC(=O)O)C(=O)N[C@H]1CSSC[C@@H]2NC(=O)[C@@H]3CSSC[C@@H](C(=O)N[C@@H](CCCNC(=N)N)C(=O)N[C@@H](CCCCN)C(=O)N[C@@H](CCC(=O)O)C(=O)N[C@H](C(N)=O)[C@@H](C)CC)NC(=O)[C@H](Cc4c[nH]c5ccccc45)NC(=O)[C@H](CC(C)C)NC(=O)[C@H](CCCCN)NC(=O)[C@H](CSSC[C@H](NC(=O)[C@H]([C@@H](C)O)NC(=O)[C@H](Cc4c[nH]c5ccccc45)NC(=O)[C@H](CCCC)NC(=O)[C@H](Cc4c[nH]c5ccccc45)NC(=O)[C@H](CCCCN)NC(=O)[C@H](CCC(N)=O)NC1=O)C(=O)N[C@@H](CC(=O)O)C(=O)N[C@@H](CO)C(=O)N[C@@H](CCCCN)C(=O)N[C@@H](CCCNC(=N)N)C(=O)N[C@@H](C)C(=O)N3)NC(=O)[C@H](CCCNC(=N)N)NC(=O)[C@H](CC(C)C)NC(=O)CNC(=O)[C@H](CCC(=O)O)NC2=O [compound 709]
pIC50 (hNav1.7; [4]): 8.95
pIC50 (hNav1.5; [4]): < 6.00
Nav1.5/Nav1.7 (hNav1.5; Table 12): >887
pIC50 (hNav1.4 [1]; [4]): 6.73
Nav1.4/Nav1.7 (hNav1.4 [1]; Table 12): 164
Nav1.6/Nav1.7 (hNav1.6): 518
pIC50 (hNav1.6): 6.23

C#CC[C@H](N)C(=O)NCCOCCOCCOCCOCCC(=O)NCCCC[C@@H]1NC(=O)[C@H](CCCNC(=N)N)NC(=O)[C@H](CCCCN)NC(=O)[C@H](CO)NC(=O)[C@H](CC(=O)O)NC(=O)[C@@H]2CSSC[C@@H]3NC(=O)[C@H](CCCNC(=N)N)NC(=O)[C@H](CC(C)C)NC(=O)CNC(=O)[C@H](CCC(=O)O)NC(=O)[C@H](CSSC[C@H](NC(=O)[C@H](Cc4ccc(O)cc4)NC(=O)[C@@H](N)CC#N)C(=O)N[C@@H](CCC(N)=O)C(=O)N[C@@H](CCCCN)C(=O)N[C@@H](Cc4c[nH]c5ccccc45)C(=O)N[C@@H](CCCC)C(=O)N[C@@H](Cc4c[nH]c5ccccc45)C(=O)N[C@@H]([C@@H](C)O)C(=O)N2)NC(=O)[C@H](CSSC[C@@H](C(=O)N[C@@H](CCCNC(=N)N)C(=O)N[C@@H](CCCCN)C(=O)N[C@H](C(=O)N[C@H](C(N)=O)[C@@H](C)CC)[C@@H](C)CC)NC(=O)[C@H](Cc2c[nH]c4ccccc24)NC(=O)[C@H](CC(C)C)NC(=O)[C@H](CCCCN)NC3=O)NC1=O [compound 380]
pIC50 (hNav1.7; [4]): 9.07
Nav1.5/Nav1.7 (hNav1.5; Table 12): 0
Nav1.4/Nav1.7 (hNav1.4 [1]; Table 12): 0

C#CC[C@@H]1NC(=O)[C@H](CCCNC(=N)N)NC(=O)[C@H](CCCCN)NC(=O)[C@H](CO)NC(=O)[C@H](CC(=O)O)NC(=O)[C@@H]2CSSC[C@@H]3NC(=O)[C@H](CCCNC(=N)N)NC(=O)[C@H](CC(C)C)NC(=O)CNC(=O)[C@H](CCC(=O)O)NC(=O)[C@H](CSSC[C@H](NC(=O)[C@@H](N)Cc4ccc(O)cc4)C(=O)N[C@@H](CCC(N)=O)C(=O)N[C@@H](CCCCN)C(=O)N[C@@H](Cc4c[nH]c5ccccc45)C(=O)N[C@@H](CCCC)C(=O)N[C@@H](Cc4c[nH]c5ccccc45)C(=O)N[C@@H]([C@@H](C)O)C(=O)N2)NC(=O)[C@H](CSSC[C@@H](C(=O)N[C@@H](CCCNC(=N)N)C(=O)N[C@@H](CCCCN)C(=O)N[C@H](C(=O)N[C@H](C(N)=O)[C@@H](C)CC)[C@@H](C)CC)NC(=O)[C@H](Cc2c[nH]c4ccccc24)NC(=O)[C@H](CC(C)C)NC(=O)[C@H](CCCCN)NC3=O)NC1=O [compound 283]
Nav1.4/Nav1.7 (hNav1.4 [2]): 1
Nav1.5/Nav1.7 (hNav1.5; Table 12): 2090
Nav1.4/Nav1.7 (hNav1.4 [1]; Table 12): 17

C#CC[C@H](N)C(=O)N[C@@H](Cc1ccc(O)cc1)C(=O)N[C@H]1CSSC[C@@H]2NC(=O)[C@@H]3CSSC[C@@H](C(=O)N[C@@H](CCCNC(=N)N)C(=O)N[C@@H](CCCCN)C(=O)N[C@@H](CCC(N)=O)C(=O)N[C@H](C(N)=O)[C@@H](C)CC)NC(=O)[C@H](Cc4c[nH]c5ccccc45)NC(=O)[C@H](CC(C)C)NC(=O)[C@H](CCCCN)NC(=O)[C@H](CSSC[C@H](NC(=O)[C@H]([C@@H](C)O)NC(=O)[C@H](Cc4c[nH]c5ccccc45)NC(=O)[C@H](CCCC)NC(=O)[C@H](Cc4c[nH]c5ccccc45)NC(=O)[C@H](CCCCN)NC(=O)[C@H](CCC(N)=O)NC1=O)C(=O)N[C@@H](CC(=O)O)C(=O)N[C@@H](CO)C(=O)N[C@@H](CCCCN)C(=O)N[C@@H](CCCNC(=N)N)C(=O)N[C@@H](C)C(=O)N3)NC(=O)[C@H](CCCNC(=N)N)NC(=O)[C@H](CC(C)C)NC(=O)CNC(=O)[C@H](CCC(=O)O)NC2=O [compound 665]
pIC50 (hNav1.7; [4]): 9.04
pIC50 (hNav1.5; [4]): 5.49
Nav1.5/Nav1.7 (hNav1.5; Table 12): 3529
pIC50 (hNav1.4 [1]; [4]): 7.97
Nav1.4/Nav1.7 (hNav1.4 [1]; Table 12): 12

C#CC[C@H](N)C(=O)N[C@@H](Cc1ccc(O)cc1)C(=O)N[C@H]1CSSC[C@@H]2NC(=O)[C@@H]3CSSC[C@@H](C(=O)N[C@@H](CCCNC(=N)N)C(=O)N[C@@H](CCCCN)C(=O)N[C@@H](CCC(=O)O)C(=O)N[C@H](C(N)=O)[C@@H](C)CC)NC(=O)[C@H](Cc4c[nH]c5ccccc45)NC(=O)[C@H](CC(C)C)NC(=O)[C@H](CCCCN)NC(=O)[C@H](CSSC[C@H](NC(=O)[C@H]([C@@H](C)O)NC(=O)[C@H](Cc4c[nH]c5ccccc45)NC(=O)[C@H](CCCC)NC(=O)[C@H](Cc4c[nH]c5ccccc45)NC(=O)[C@H](CCCCN)NC(=O)[C@H](CCC(N)=O)NC1=O)C(=O)N[C@@H](CC(=O)O)C(=O)N[C@@H](CCC(=O)O)C(=O)N[C@@H](CCCCN)C(=O)N[C@@H](CCCNC(=N)N)C(=O)N[C@@H](C)C(=O)N3)NC(=O)[C@H](CCCNC(=N)N)NC(=O)[C@H](CC(C)C)NC(=O)CNC(=O)[C@H](CCC(=O)O)NC2=O [compound 714]
Nav1.5/Nav1.7 (hNav1.5; Table 12): >6341
Nav1.4/Nav1.7 (hNav1.4 [1]; Table 12): 241
Nav1.6/Nav1.7 (hNav1.6): 737

CCC[C@H](N)C(=O)N[C@@H](Cc1ccc(O)cc1)C(=O)N[C@H]1CSSC[C@@H]2NC(=O)[C@@H]3CSSC[C@@H](C(=O)N[C@@H](CCCNC(=N)N)C(=O)N[C@@H](CCCCN)C(=O)N[C@H](C(=O)N[C@H](C(N)=O)[C@@H](C)CC)[C@@H](C)CC)NC(=O)[C@H](Cc4c[nH]c5ccccc45)NC(=O)[C@H](CC(C)C)NC(=O)[C@H](CCCCN)NC(=O)[C@H](CSSC[C@H](NC(=O)[C@H]([C@@H](C)O)NC(=O)[C@H](Cc4c[nH]c5ccccc45)NC(=O)[C@H](CC(C)C)NC(=O)[C@H](Cc4c[nH]c5ccccc45)NC(=O)[C@H](CCCCN)NC(=O)[C@H](CCC(N)=O)NC1=O)C(=O)N[C@@H](CC(=O)O)C(=O)N[C@@H](CO)C(=O)N[C@@H](CCCCN)C(=O)N[C@@H](CCCNC(=N)N)C(=O)N[C@@H](CCCCNC(=O)[C@@H](N)Cc1cn(CCOCCOCCOCCOCCOCCOCCOCCOCCOCCOCCN)nn1)C(=O)N3)NC(=O)[C@H](CCCNC(=N)N)NC(=O)[C@H](CC(C)C)NC(=O)CNC(=O)[C@H](CCC(=O)O)NC2=O [compound 446]
pIC50 (hNav1.7): 7.93
Nav1.5/Nav1.7 (hNav1.5; Table 13): 207
pIC50 (hNav1.5): 5.62
Nav1.4/Nav1.7 (hNav1.4 [1]; Table 13): 11
pIC50 (hNav1.4 [1]): 6.89
